Measurements published in US7501428B2, “Quinazoline thiazolinones” (Hoffmann-La Roche Inc., priority 2004, dated 2009).

Target: T1, recombinant human CDK1/Cyclin B complex (Homo sapiens, UniProt P06493)
T1 construct: made in house; host or cells: High Five insect cells (baculovirus) for CDK1/GST-cyclin B; M15 E. coli for the Rb substrate
Experiment: CDK1/Cyclin B kinase assay (FlashPlate or HTRF)
Assay type: biochemical
Conditions: Rb protein substrate, Ki=IC50/(1+[S]/Km)
Description: To determine inhibition of CDK1 activity, either FlashPlate™ (NEN™-Life Science Products) assay or HTRF assay was performed. Both types of kinase assays were carried out using recombinant human CDK1/Cyclin B complex. GST-cyclinB (GST-cycB) and CDK1 cDNA clones in baculovirus vectors were provided by Dr. W. Harper at the Baylor College of Medicine, Houston, Tex. Proteins were co-expressed in High Five™ insect cells and the complex was purified on glutathione Sepharose resin (Pharmacia, Piscataway, N.J.) as previously described (Harper, J. W. et al. Cell 1993, 75, 805-816). A 6×-Histidine tagged truncated form of retinoblastoma (Rb) protein (amino acid 386-928) was used as the substrate for the CDK1/Cyclin B assay (the expression plasmid was provided by Dr. Veronica Sullivan, Department of Molecular Virology, Roche Research Centre, Welwyn Garden City, United Kingdom). The Rb protein is a natural substrate for phosphorylation by CDK1 (see Herwig and Strauss Eur. J. Biochem. Vol. 246 (1997) pp. 581-601 and the references cited therein). The expression of the 62Kd protein was under the control of an IPTG inducible promoter in an M15 E. coli strain. Cells were lysed by sonication and purification was carried out by binding lysates at pH 8.0 to a Ni-chelated agarose column pretreated with 1 mM imidazole. The resin was then washed several times with incrementally decreasing pH buffers to pH 6.0, and eluted with 500 mM imidazole. Eluted protein was dialyzed against 20 mM HEPES pH 7.5, 30% glycerol, 200 mM NaCl, and 1 mM DTT. Purified Rb fusion protein stocks were quantitated for protein concentration, aliquoted, and stored at −70° C.
For the FlashPlate kinase assay, 96-well FlashPlates were coated with Rb protein at 10 μg/ml, using 100 μl per well. Plates were incubated at 4° C. overnight or at room temperature for 3 hours on a shaker. […] Plates were washed four times with the wash buffer, sealed, and counted on the TopCount scintillation counter (Packard Instrument Co., Downers Grove, Ill.]. The percent inhibition of Rb phosphorylation, which is a measure of the inhibition of CDK activity, was determined according to the following formula:
[formula] where “test compound” refers to the average counts per minute of the test duplicates, “nonspecific” refers to the average counts per minute when no CDK1/Cyclin B, etc., was added, and “total” refers to the average counts per minute when no compound was added. […] The value of the inhibitor constant Ki is calculated by the following: Ki=IC50/(1+[S]/Km), where [S] is the ATP concentration and Km is Michaelis constant.
The Homogeneous Time Resolved Fluorescence (HTRF) kinase assay was carried out in 96-well polypropylene plates (BD Biosciences, Bedford, Mass.). […]

T1 sequence (P06493 whole entry): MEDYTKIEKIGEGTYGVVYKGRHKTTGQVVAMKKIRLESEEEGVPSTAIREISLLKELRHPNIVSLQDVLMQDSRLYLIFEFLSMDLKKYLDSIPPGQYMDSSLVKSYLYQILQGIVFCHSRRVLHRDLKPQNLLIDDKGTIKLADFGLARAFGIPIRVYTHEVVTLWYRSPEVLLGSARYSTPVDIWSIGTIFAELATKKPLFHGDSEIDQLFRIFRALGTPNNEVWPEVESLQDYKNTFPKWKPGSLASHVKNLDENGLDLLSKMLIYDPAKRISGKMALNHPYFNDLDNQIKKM
T1 sequence (P14635 whole entry partner): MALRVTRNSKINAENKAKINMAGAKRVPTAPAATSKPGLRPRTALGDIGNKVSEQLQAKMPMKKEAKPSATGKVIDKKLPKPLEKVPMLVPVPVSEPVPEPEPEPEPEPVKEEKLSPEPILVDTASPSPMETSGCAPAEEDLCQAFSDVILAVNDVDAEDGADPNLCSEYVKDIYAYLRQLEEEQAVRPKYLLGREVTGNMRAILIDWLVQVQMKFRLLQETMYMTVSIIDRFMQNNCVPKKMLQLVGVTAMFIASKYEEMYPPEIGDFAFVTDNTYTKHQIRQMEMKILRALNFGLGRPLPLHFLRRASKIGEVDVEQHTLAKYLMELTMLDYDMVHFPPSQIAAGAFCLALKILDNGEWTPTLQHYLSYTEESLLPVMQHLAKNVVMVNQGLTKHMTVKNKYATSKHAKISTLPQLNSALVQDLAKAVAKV

O=C1N=C(N[C@@H](CO)Cc2ccccc2)S/C1=C\c1ccc2ncncc2c1 [Example 7, 2-((R)-1-Hydroxymethyl-2-phenyl-ethylamino)-5-[1-quinazolin-6-yl-meth-(Z)-ylidene]-thiazol-4-one]
Ki: 1110 nM

COc1cc(F)ccc1NC1=NC(=O)/C(=C/c2ccc3ncncc3c2)S1 [Example 5, 2-(4-Fluoro-2-methoxy-phenylamino)-5-[1-quinazolin-6-yl-meth-(Z)-ylidene]-thiazol-4-one]
Ki: 1840 nM

O=C1N=C(NCc2cccs2)S/C1=C\c1ccc2ncncc2c1 [Example 1, 5-[1-Quinazolin-6-yl-meth-(Z)-ylidene]-2-[(thiophen-2-ylmethyl)-amino]-thiazol-4-one]
Ki: 1220 nM

O=C1N=C(NCCc2cccc(F)c2)S/C1=C\c1ccc2ncncc2c1 [Example 3, 2-[2-(3-Fluoro-phenyl)-ethylamino]-5-[1-quinazolin-6-yl-meth-(Z)-ylidene]-thiazol-4-one]
Ki: 881 nM
